From patent publication US9701680B2, “Pyrimidine and pyridine compounds and their usage” (HUTCHISON MEDIPHARMA LIMITED, priority 2013, dated 2017)
Like-named read-outs stand apart in the source and are kept apart here.

Assays:
Recombinant human FGFR1 = Recombinant human FGFR1 (Homo sapiens, UniProt P11362); test: Transcreener Kinase Assay of FGFR1; assay type: biochemical
Description: (§1) • 1. […] Prepare Solution • Test compounds were solved in DMSO and were diluted with assay buffer to 5 folds of final concentration keeping the DMSO concentration at 5%. Further dilution are needed to make final concentrations are at 1, 0.33, 0.11, 0.037, 0.012, 0.004, 0.0014, 0.0005 μM; (the final concentration of DMSO is 1%). • Enzyme/Substrate stock Preparation: Recombinant human FGFR1 and Poly E4Y are both diluted in assay buffer.
• 3. Enzymatic Reaction • In a 96-well plate, add 5 μL of diluted solution of test compound or control solution. (positive control: 5 μL of 5% DMSO; negative control: 5 μL of 500 mM EDTA) into desired wells respectively; • Add 10 μL of Enzyme/Substrate stock into each well; • Add 10 μL of ATP Diluents to initiate the enzyme reaction and vortex the plate immediately on a plate shaker; • For the wells to make standard curve, add 5 μL of 5% DMSO, 10 μL of assay buffer and 10 μL of ATP standard curve stock. • Incubate the plate for 45 min at 28° C. on a plate shaker in a low speed. • 4. […] Excitation wavelength: 610 nm, Emission wavelength: 670 nm. • 5. Data Analysis
(§2) [formula] Note: • [ADP] in Compound well represents the ADP concentration in test compound well. • [ADP] in Positive control well represents the ADP concentration in 5% DMSO well • Conversion of mP value to ADP concentration is calculated based on the formula which determined by standard curve. And mP value is measured by following the instruction provided by BellBrook Labs. (www.bellbrooklabs.com). • 6. IC50: determined with add-in software for Microsoft Excel, XLfit™ (version 2.0) from ID Business Solutions (Guildford, UK).

Recombinant human FGFR2 = Recombinant human FGFR2 (Homo sapiens, UniProt P21802); test: Transcreener Kinase Assay of FGFR2; assay type: biochemical
Description: Example 24: Transcreener Kinase Assay of FGFR2
as §1, with “FGFR2” for “FGFR1”, “buffer. The final concentration is 0.3 ng/μL for FGFR2 and 62.5 ng/μL for Poly E4Y. The mixture is being kept in ice before use; • Prepare ATP Diluents, 10 mM ATP is diluted in assay buffer, the final concentration is 25 μM; • Prepare ADP Diluents: diluted ADP (500 μM) in assay buffer, the final concentration is 25 μM; • Prepare ATP standard curve stock as following:” for “buffer.”
• 3. Enzymatic Reaction • In a 96-well plate, add 5 μL of deluted solution of test compound or control solution. (positive control: 5 μL of 5% DMSO; negative control: 5 μL of 500 mM EDTA) into desired wells respectively; • Add 10 μL of Enzyme/Substrate stock into each well; • Add 10 μL of ATP Diluents to initiate the enzyme reaction and vortex the plate immediately on a plate shaker; • For the wells to make standard curve, add 5 μL of 5% DMSO, 10 μL of assay buffer and 10 μL of ATP standard curve stock. • Incubate the plate for 45 min at 28° C. on a plate shaker in a low speed. • 4. Stoping Reaction and Detecting ADP • Detection Mix Preparation: The mixture is made by dilution with MilliQ water; as following: ADP Alexa633 tracer (1:100), ADP antibody (1:158), and stop & detect buffer (1:10); • Tracer Only control Preparation: The mixture is made by dilution with MilliQ water; as following: ADP Alexa633 tracer (1:100), and stop & detect buffer (1: 10) • No Tracer control Preparation: stop & detect buffer is diluted with MilliQ water; by 10 fold. • Add 25 μL of detection mix, Tracer Only control and No Tracer control into corresponding wells, respectively; • Incubate at 28° C. for 1 h, on a plate shaker in a low speed; • Measure florescence polarization (mP) on TECAN F500. Excitation wavelength: 610 nm, Emission wavelength: 670 nm. • 5. Data Analysis
as §2

FGFR3 kinase = FGFR3 kinase (Homo sapiens, UniProt P22607); test: Z-Lyte Kinase Assay of FGFR3; assay type: biochemical
Description: Example 25: Z-Lyte Kinase Assay of FGFR3
• 1. Materials and Reagents:
• 2. Reaction Steps: Plate Map
• 3. […] The final concentrations are 1, 0.33, 0.11, 0.037, 0.012, 0.004, 0.0014, 0.00046 μM, and the final concentration of DMSO is 2%. • 3) Kinase/Peptide Mixture (P/K solution): Prepare Kinase/Peptide Mixture by diluting the kinase to 0.7 μg/ml and the Z-LYTE™ Tyr 4 peptide to 4 μM in 1.33× Kinase Buffer. Mix gently by pipetting. • 4) Phospho-peptide Solution (PP solution): Add 0.4 μl of Z-LYTE™ Tyr 4 Phospho-peptide to 99.6 μl of 1.33× Kinase Buffer. • 5) ATP Solution: Prepare ATP Solution by diluting the 10 mM of ATP in 1.33× Kinase Buffer to 300 uM. • 6) Development Solution: Dilute Development Reagent B with Development Buffer as 1:128. • 4. […] Shake the plate for 30 Sec and centrifuge (1500 rpm, 1 min). • Seal the plate to protect from the light and incubate the plate for 1 hour at RT (25-30° C.). • 2) Development reaction • Add 5 μl of the Development solution to all wells. • Shake the plate for 30 Sec and centrifuge (1500 rpm, 1 min). • Seal the plate to protect from the light and incubate the plate for 1 hour at RT (25-30° C.). • 3) Stop and Read • Add 5 μl of the Stop reagent to all wells. • Shake the plate for 30 Sec and centrifuge (1500 rpm, 1 min). • Measure the value of Coumarin (Ex400 nm, Em445 nm) and fluorescein (Ex400 nm, Em520 nm), respectively. • 5. Data Analysis Emission Ratio(ER)=Coumarin Emission (445 nm)/Fluorescein Emission (520 nm) % Phosphorylation=1−[ER×C3520nm-C3445nm]/[(C1445nm-C3445nm)+ER×(C3520nm−C1520nm)] Inhibition rate (IR)=1−% Photest Cpd/% PhoC2 • 6. IC50 Value: determined with add-in software for Microsoft Excel, XLfit™ (version 2.0) from ID Business Solutions (Guildford, UK)

KG-1 = test: Cellular Proliferation Assay (Cell Counting Kit-8), KG-1; assay type: cell-based; conditions: Homo sapiens; KG-1 cells, 72 hours; read-out: KG1 IC50
Description: (§3) Example 26: Cellular Proliferation Assay
(§4) • 1. Cell Line • KG-1 (ATCC Accession No. CCL-246), • SNU-16 (ATCC Accession No. CRL-5974), • RT-112 (ECACC Accession No. 85061106) • 2. Assay Protocol • FGFR related cancer cell proliferation is measured in 96-well plates using Cell Counting Kit-8 (Dojindo CK04-13). • Seed 30000 cells/well of KG1, 5000 cells/well of SNU16, and 1000 cells/well of RT112 in a volume of 100 μL/well in growth media. • After 24 hours, dilute the test compound to 10, 3.3, 1.1, 0.37, 0.12, 0.04, 0.013, 0.004 μM, keeping the DMSO concentration at 5%. • Add 10 μL of 8-point compound series to the wells of culturing cells. • Incubate at 37° C. and 5% CO2 for 72 hours • Add 10 μL/well of CCkit8 and incubate at 37° C. and 5% CO2 for an hour • Detect the optical density of each well at 450 nm on Labsystems Multiskan K3. • 3. Data Analysis
(§5) [formula] Note: • ODcompound well represents the optical density of cells treated with compound. • ODcell well represents the optical density of cells without compounds treatment.(only 0.5% DMSO) • ODcontrol well represents the optical density of culture media background • IC50: determined with add-in software for Microsoft Excel, XLfit™ (version 2.0) from ID Business Solutions (Guildford, UK).

SNU-16 = test: Cellular Proliferation Assay (Cell Counting Kit-8), SNU-16; assay type: cell-based; conditions: Homo sapiens; SNU-16 cells, 72 hours
Description: as §3, §4, §5

RT-112 = test: Cellular Proliferation Assay (Cell Counting Kit-8), RT-112; assay type: cell-based; conditions: Homo sapiens; RT-112 cells, 72 hours
Description: as §3, §4, §5

Recombinant human FGFR2, sequence (P21802 22-821): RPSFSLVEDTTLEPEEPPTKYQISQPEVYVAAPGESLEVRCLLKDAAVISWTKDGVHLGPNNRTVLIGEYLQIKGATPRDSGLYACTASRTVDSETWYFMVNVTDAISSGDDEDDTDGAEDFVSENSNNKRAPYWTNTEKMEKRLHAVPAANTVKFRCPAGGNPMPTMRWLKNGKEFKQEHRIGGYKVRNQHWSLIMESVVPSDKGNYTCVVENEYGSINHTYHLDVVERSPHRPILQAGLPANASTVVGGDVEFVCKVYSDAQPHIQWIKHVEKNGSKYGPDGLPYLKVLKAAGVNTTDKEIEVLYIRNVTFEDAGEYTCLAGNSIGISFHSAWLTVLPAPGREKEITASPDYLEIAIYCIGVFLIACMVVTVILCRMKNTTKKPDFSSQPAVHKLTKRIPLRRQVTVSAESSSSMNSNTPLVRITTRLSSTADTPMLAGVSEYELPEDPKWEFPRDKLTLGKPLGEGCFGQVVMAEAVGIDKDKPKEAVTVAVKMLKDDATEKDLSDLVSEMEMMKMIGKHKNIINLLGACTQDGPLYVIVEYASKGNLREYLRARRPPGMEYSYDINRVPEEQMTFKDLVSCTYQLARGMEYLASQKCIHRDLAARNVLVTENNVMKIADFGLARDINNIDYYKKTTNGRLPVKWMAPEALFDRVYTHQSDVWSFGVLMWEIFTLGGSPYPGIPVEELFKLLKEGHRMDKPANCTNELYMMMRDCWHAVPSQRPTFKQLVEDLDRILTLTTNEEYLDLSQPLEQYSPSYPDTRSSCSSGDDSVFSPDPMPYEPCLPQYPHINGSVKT
Recombinant human FGFR1, sequence (P11362 22-822): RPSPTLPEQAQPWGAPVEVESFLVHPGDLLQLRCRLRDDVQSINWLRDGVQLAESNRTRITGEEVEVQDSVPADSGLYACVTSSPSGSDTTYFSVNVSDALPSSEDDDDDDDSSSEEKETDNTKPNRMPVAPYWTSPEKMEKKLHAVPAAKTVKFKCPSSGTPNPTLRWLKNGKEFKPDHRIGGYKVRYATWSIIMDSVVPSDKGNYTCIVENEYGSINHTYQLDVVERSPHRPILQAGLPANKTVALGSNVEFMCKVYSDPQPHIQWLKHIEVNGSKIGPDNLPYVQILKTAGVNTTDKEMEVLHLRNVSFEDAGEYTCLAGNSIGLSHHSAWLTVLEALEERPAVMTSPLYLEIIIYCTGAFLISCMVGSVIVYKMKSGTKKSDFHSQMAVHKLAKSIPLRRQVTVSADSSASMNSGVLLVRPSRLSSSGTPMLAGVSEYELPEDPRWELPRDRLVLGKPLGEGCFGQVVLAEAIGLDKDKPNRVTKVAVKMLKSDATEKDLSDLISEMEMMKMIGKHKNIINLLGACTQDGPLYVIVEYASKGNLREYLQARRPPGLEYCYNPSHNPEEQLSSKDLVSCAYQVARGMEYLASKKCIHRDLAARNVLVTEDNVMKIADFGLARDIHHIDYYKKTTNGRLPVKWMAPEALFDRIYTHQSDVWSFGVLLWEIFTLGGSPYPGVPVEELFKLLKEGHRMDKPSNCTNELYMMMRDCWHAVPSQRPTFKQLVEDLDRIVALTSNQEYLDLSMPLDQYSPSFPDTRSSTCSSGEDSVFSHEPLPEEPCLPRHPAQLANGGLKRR
FGFR3 kinase, sequence (P22607 23-806): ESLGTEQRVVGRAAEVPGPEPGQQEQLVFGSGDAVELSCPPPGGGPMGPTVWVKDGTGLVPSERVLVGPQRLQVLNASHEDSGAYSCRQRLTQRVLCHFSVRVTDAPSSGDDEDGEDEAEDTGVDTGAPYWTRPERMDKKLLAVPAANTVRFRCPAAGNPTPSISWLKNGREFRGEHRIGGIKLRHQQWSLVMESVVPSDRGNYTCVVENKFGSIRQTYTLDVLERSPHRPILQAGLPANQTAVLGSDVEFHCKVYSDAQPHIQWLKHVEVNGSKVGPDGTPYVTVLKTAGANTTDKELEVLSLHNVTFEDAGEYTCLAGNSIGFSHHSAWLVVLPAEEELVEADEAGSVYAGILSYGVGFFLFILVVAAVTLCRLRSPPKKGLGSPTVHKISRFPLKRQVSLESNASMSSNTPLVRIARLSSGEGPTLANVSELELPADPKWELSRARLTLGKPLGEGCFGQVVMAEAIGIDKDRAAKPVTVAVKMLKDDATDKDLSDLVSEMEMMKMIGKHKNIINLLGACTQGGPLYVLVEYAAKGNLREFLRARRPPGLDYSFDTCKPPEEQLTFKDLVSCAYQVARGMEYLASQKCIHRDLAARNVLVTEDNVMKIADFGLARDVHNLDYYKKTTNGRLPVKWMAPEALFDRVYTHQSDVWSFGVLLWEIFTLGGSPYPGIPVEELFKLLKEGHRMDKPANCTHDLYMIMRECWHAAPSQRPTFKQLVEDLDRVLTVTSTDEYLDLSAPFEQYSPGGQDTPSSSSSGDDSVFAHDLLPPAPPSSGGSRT

Compound	IC50 (Recombinant human FGFR1; read-out: FGFR1 (FP) IC50)	IC50 (Recombinant human FGFR2; read-out: FGFR2 (FP) IC50)	IC50 (FGFR3 kinase)	IC50 (KG-1)	IC50 (SNU-16)	IC50 (RT-112)	IC50 (Recombinant human FGFR1; FP)	IC50 (Recombinant human FGFR2; FP)	IC50 (FGFR3 kinase; Z-lyte)
CNC(=O)c1cc(CCc2cnc(Nc3ccc(N)cc3)nc2)c(Cl)c(OC)c1 [Compound 80]	10 nM	11 nM	13 nM	13 nM	18 nM	44 nM			
CNC(=O)c1cc(COc2cnc(Nc3cnc(N4C[C@@H](C)N[C@@H](C)C4)c(C)c3)nc2)c(Cl)c(OC)c1 [Compound 287]				54 nM	14 nM	35 nM	11 nM	8 nM	8 nM
CNC(=O)c1cc(COc2cnc(Nc3ccc(-n4ccnn4)cc3)nc2)c(F)c(OC)c1 [Compound 222]	39 nM	12 nM	40 nM	52 nM	34 nM	83 nM			
CNC(=O)c1cc(COc2cnc(Nc3cnc(N4C[C@@H](C)N[C@@H](C)C4)c(F)c3)nc2)c(F)c(OC)c1 [Compound 277]	20 nM	14 nM	18 nM	57 nM	36 nM	109 nM			
CNC(=O)c1cc(COc2cnc(Nc3ccc(-n4nccn4)cc3)nc2)c(Cl)c(OC)c1 [Compound 233]	98 nM	31 nM	310 nM	58 nM	63 nM	121 nM			
CNC(=O)c1cc(OC)c(F)c(COc2cnc(Nc3cccc(N4C[C@@H](C)N[C@@H](C)C4)c3)nc2)c1F [Compound 275]	14 nM	9 nM	14 nM	46 nM	18 nM	62 nM			
CNC(=O)c1cc(COc2cnc(Nc3cnn(C[C@@H]4COC(C)(C)O4)c3)nc2)c(F)c(OC)c1 [Compound 248]	16 nM	11 nM	14 nM	6 nM	9 nM	21 nM			
CNC(=O)c1cc(COc2cnc(Nc3ccc([C@H]4CCCN(C(C)=O)C4)nc3)nc2)c(Cl)c(OC)c1 [Compound 284]				71 nM	33 nM	72 nM	39 nM	24 nM	43 nM
CCN1[C@H](C)CN(c2ccc(Nc3ncc(OCc4cc(C(=O)NC)cc(OC)c4F)cn3)cn2)C[C@@H]1C [Compound 281]				9 nM	14 nM	37 nM	19 nM	14 nM	19 nM
CNC(=O)c1cc(OC)c(Cl)c(COc2cnc(Nc3ccc(N4C[C@@H](C)N[C@@H](C)C4)nc3)nc2)c1F [Compound 291]				15 nM	17 nM	27 nM	17 nM	18 nM	17 nM
CCN1CCC(c2ccc(Nc3ncc(OCc4cc(C(=O)NC)cc(OC)c4F)cn3)cc2OC)CC1 [Compound 280]				191 nM	7 nM	29 nM	27 nM	18 nM	16 nM
CNC(=O)c1cc(COc2cnc(Nc3cnn(C[C@H]4COC(C)(C)O4)c3)nc2)c(F)c(OC)c1 [Compound 249]	38 nM	14 nM	15 nM	27 nM	10 nM	30 nM			
CNC(=O)c1cc(COc2cnc(Nc3ccc(S(C)(=O)=O)cc3)nc2)c(F)c(OC)c1 [Compound 226]	30 nM	10 nM	27 nM	35 nM	32 nM	285 nM			
CNC(=O)c1cc(COc2cnc(Nc3ccnc(N4C[C@@H](C)N[C@@H](C)C4)c3)nc2)c(F)c(OC)c1 [Compound 259]	24 nM	14 nM	13 nM	220 nM	39 nM	141 nM			
CNC(=O)c1cc(C#Cc2cnc(Nc3ccc(N4C[C@@H](C)N[C@@H](C)C4)c(OC)c3)nc2)c(F)c(OC)c1 [Compound 306]				100 nM	23 nM	16 nM	29 nM	12 nM	26 nM
